Marks after values point to notes of the source that are not given here.
Tests used:
[1] = tested on: lyase purified from the fungal infected algae; assay: Effect of alcohols on activity and stability of the lyase (AF yield); assay type: biochemical, fungal infected Gracilariopsis lemaneiformis
Description: 1-propanol, 2-propanol and 1-butanol were tested at the following concentrations (0%, 1%, 5% and 10%).
Ethanol was tested at the following concentrations (0, 1, 3, 5, 7, 9, 11, 13, 15%).

[2] = tested on: α-1,4-glucan lyase from the parasite-free red seaweed Gracilariopsis lemaneiformis; assay: Degradation rates of the Californian algal lyase on various substrates; assay type: biochemical; settings: for AF released: substrate 10 mg/ml, pH 3.8, 40 min at 45° C.
Description: Reaction conditions: The reaction mixture contained 10 mM of HOAc-NaOAc (pH 3.8). The substrate concentration was 10 mg/ml. The final volume was 100 ul after the addition of lyase and water. The reaction time was 40 min at 45° C.

lyase from M. vulgaris = assay: Relative degrading rates of the lyase from M. vulgaris towards various substrates; assay type: biochemical, Morchella vulgaris; settings: for degradation (AF detectable on TLC plates): incubated for 48 h; for Activity (%) (maltotetraose = 100%): all substrates 10 mg ml^−1
Description: The activity observed for maltotetraose is treated as 100%. The final concentration of all substrates was 10 mg ml^−1.

lyase from M. costata = assay: Relative degrading rates of the lyase from M. costata towards various substrates; assay type: biochemical, Morchella costata; settings: for degradation (AF detectable on TLC plates): incubated for 48 h; for activity (maltotetraose as 100%): purified fungal lyase, section B.1.4.3
α-1,4-glucan lyase = assay: Activity of the lyase towards maltosaccharides (summary); assay type: biochemical
[3] = tested on: lyase from the fungal infected Gracilariopsis lemaneiformis; assay: Reaction rates with glycogen and amylopectin, lyase from fungal infected Gracilariopsis lemaneiformis; assay type: biochemical

Molecule: CCO [Ethanol]
- increase of AF yield ([1]; 3%, 10 days incubation): 16%
- increase of AF yield ([1]; 5%, 7 days incubation): 12%
- optimal concentration for AF yield ([1]; 7 days incubation, tested 0-15%): 5%
- optimal concentration for AF yield ([1]; 10 days incubation, tested 0-15%): 3%

Molecule: OC[C@H]1O[C@H](O[C@H]2O[C@H](CO)[C@@H](O)[C@H](O)[C@H]2O)[C@H](O)[C@@H](O)[C@@H]1O [Trehalose]
- degradation by the lyase [2]: not able to degrade
- degradation (AF detectable on TLC plates) (lyase from M. vulgaris): no AF detectable
- degradation (AF detectable on TLC plates) (lyase from M. costata): no AF detectable

Molecule: pullulan
- degradation by the lyase [2]: not able to degrade
- degradation (AF detectable on TLC plates) (lyase from M. vulgaris): no AF detectable
- degradation (AF detectable on TLC plates) (lyase from M. costata): no AF detectable

Molecule: OCC1OC(OC2C(CO)OC(OC3C(CO)OC(O)C(O)C3O)C(O)C2O)C(O)C(O)C1O (stereo not drawn) [Maltotriose, maltotriose]
- AF released [2]: 654 nmol
- Activity (%) (maltotetraose = 100%) (lyase from M. vulgaris): 49.8%
- lyase activity towards maltosaccharide (α-1,4-glucan lyase): lower activity
- activity (maltotetraose as 100%) (lyase from M. costata): 56%
- relative degrading rate (maltotetraose = 100%) (lyase from M. costata; substrate 2 mg/ml): 40.6%
- relative degrading rate (maltotetraose = 100%) (lyase from M. costata; substrate 4 mg/ml): 58.6%
- relative degrading rate (maltotetraose = 100%) (lyase from M. costata; substrate 10 mg/ml): 56.0%

Molecule: OC[C@H]1O[C@H](OC[C@H]2OC(O)[C@H](O)[C@@H](O)[C@@H]2O)[C@H](O)[C@@H](O)[C@@H]1O (stereo partly drawn) [isomaltose]
- degradation by the lyase [2]: not able to degrade
- degradation (AF detectable on TLC plates) (lyase from M. vulgaris): no AF detectable
- degradation (AF detectable on TLC plates) (lyase from M. costata): no AF detectable

Molecule: 1-propanol
- AF yield ([1]; 1% (v/v), 1 day): 80 µmol
- AF yield ([1]; 1% (v/v), 3 days): 280 µmol
- AF yield ([1]; 1% (v/v), 6 days): 530 µmol
- AF yield ([1]; 1% (v/v), 10 days): 803 µmol
- AF yield ([1]; 5% (v/v), 1 day): 115 µmol
- AF yield ([1]; 5% (v/v), 3 days): 367 µmol
- AF yield ([1]; 5% (v/v), 6 days): 605 µmol
- AF yield ([1]; 5% (v/v), 10 days): 853 µmol
- increase of AF yield ([1]; 5%, after 6 days of incubation): 34%
- AF yield ([1]; 10% (v/v), 1 day): 107 µmol
- AF yield ([1]; 10% (v/v), 3 days): 307 µmol
- AF yield ([1]; 10% (v/v), 6 days): 456 µmol
- AF yield ([1]; 10% (v/v), 10 days): 583 µmol
- optimal concentration for AF yield ([1]; tested at 0%, 1%, 5% and 10%): 5%

Molecule: O=[N+]([O-])c1ccc(OC2OC(CO)C(OC3OC(CO)C(OC4OC(CO)C(OC5OC(CO)C(OC6OC(CO)C(OC7OC(CO)C(OC8OC(CO)C(O)C(O)C8O)C(O)C7O)C(O)C6O)C(O)C5O)C(O)C4O)C(O)C3O)C(O)C2O)cc1 (stereo not drawn)
- degradation (AF detectable on TLC plates) (lyase from M. vulgaris): no AF detectable
- degradation by the fungal lyase (lyase from M. costata): failed to degrade
- degradation (AF detectable on TLC plates) (lyase from M. costata): no AF detectable

Molecule: OC[C@H]1O[C@H](O[C@H]2[C@H](O)[C@@H](O)[C@@H](O[C@H]3[C@H](O)[C@@H](O)[C@@H](O[C@H]4[C@H](O)[C@@H](O)C(O)O[C@@H]4CO)O[C@@H]3CO)O[C@@H]2CO)[C@H](O)[C@@H](O)[C@@H]1O (stereo partly drawn) [Maltotetraose, maltotetraose]
- AF released [2]: 670 nmol
- Activity (%) (maltotetraose = 100%) (lyase from M. vulgaris): 100.0%
- lyase activity towards maltosaccharide (α-1,4-glucan lyase): highest activity
- activity (maltotetraose as 100%) (lyase from M. costata): 100%
- relative degrading rate (maltotetraose = 100%) (lyase from M. costata; substrate 2 mg/ml): 100%
- relative degrading rate (maltotetraose = 100%) (lyase from M. costata; substrate 4 mg/ml): 100%
- relative degrading rate (maltotetraose = 100%) (lyase from M. costata; substrate 10 mg/ml): 100%

Molecule: OC[C@H]1O[C@@H]2O[C@H]3[C@H](O)[C@@H](O)[C@@H](O[C@H]4[C@H](O)[C@@H](O)[C@@H](O[C@H]5[C@H](O)[C@@H](O)[C@@H](O[C@H]6[C@H](O)[C@@H](O)[C@@H](O[C@H]7[C@H](O)[C@@H](O)[C@@H](O[C@H]8[C@H](O)[C@@H](O)[C@@H](O[C@H]9[C@H](O)[C@@H](O)[C@@H](O[C@H]1[C@H](O)[C@H]2O)O[C@@H]9CO)O[C@@H]8CO)O[C@@H]7CO)O[C@@H]6CO)O[C@@H]5CO)O[C@@H]4CO)O[C@@H]3CO [gama-cyclodextrin]
- degradation by the lyase [2]: not able to degrade
- degradation (AF detectable on TLC plates) (lyase from M. vulgaris): no AF detectable
- degradation (AF detectable on TLC plates) (lyase from M. costata): no AF detectable

Molecule: amylose
- degradation by the fungal lyase (lyase from M. costata): also degraded

Molecule: OC[C@H]1O[C@H](O[C@H]2[C@H](O)[C@@H](O)[C@@H](O[C@H]3[C@H](O)[C@@H](O)[C@@H](O[C@H]4[C@H](O)[C@@H](O)[C@@H](O[C@H]5[C@H](O)[C@@H](O)[C@@H](O[C@H]6[C@H](O)[C@@H](O)C(O)O[C@@H]6CO)O[C@@H]5CO)O[C@@H]4CO)O[C@@H]3CO)O[C@@H]2CO)[C@H](O)[C@@H](O)[C@@H]1O (stereo partly drawn) [Maltohexaose, maltohexaose]
- AF released [2]: 826 nmol
- Activity (%) (maltotetraose = 100%) (lyase from M. vulgaris): 92.4%
- activity (maltotetraose as 100%) (lyase from M. costata): 97%
- relative degrading rate (maltotetraose = 100%) (lyase from M. costata; substrate 2 mg/ml): 86.6%
- relative degrading rate (maltotetraose = 100%) (lyase from M. costata; substrate 4 mg/ml): 98.2%
- relative degrading rate (maltotetraose = 100%) (lyase from M. costata; substrate 10 mg/ml): 95.9%

Molecule: Soluble starch
- Activity (%) (maltotetraose = 100%) (lyase from M. vulgaris): 100.5%
- relative degrading rate (maltotetraose = 100%) (lyase from M. costata; substrate 10 mg/ml): 92.9%

Molecule: OC[C@H]1O[C@H](O[C@H]2[C@H](O)[C@@H](O)[C@@H](O[C@H]3[C@H](O)[C@@H](O)[C@@H](O[C@H]4[C@H](O)[C@@H](O)[C@@H](O[C@H]5[C@H](O)[C@@H](O)C(O)O[C@@H]5CO)O[C@@H]4CO)O[C@@H]3CO)O[C@@H]2CO)[C@H](O)[C@@H](O)[C@@H]1O (stereo partly drawn) [Maltopentaose, maltopentaose]
- AF released [2]: 674 nmol
- Activity (%) (maltotetraose = 100%) (lyase from M. vulgaris): 79.3%
- lyase activity towards maltosaccharide (α-1,4-glucan lyase): highest activity
- relative degrading rate (maltotetraose = 100%) (lyase from M. costata; substrate 2 mg/ml): 107.1%
- relative degrading rate (maltotetraose = 100%) (lyase from M. costata; substrate 4 mg/ml): 100.1%
- relative degrading rate (maltotetraose = 100%) (lyase from M. costata; substrate 10 mg/ml): 99.7%

Molecule: OC[C@H]1O[C@H](O[C@@H]2[C@@H](O)[C@@H](O[C@@H]3[C@@H](O)[C@@H](O[C@H]4[C@H](O)[C@@H](CO)OC(O)[C@@H]4O)O[C@H](CO)[C@H]3O)O[C@H](CO)[C@H]2O)[C@H](O)[C@@H](O)[C@@H]1O (stereo partly drawn) [nigerotetraose]
- degradation by the lyase [2]: not able to degrade
- degradation (AF detectable on TLC plates) (lyase from M. vulgaris): no AF detectable
- degradation (AF detectable on TLC plates) (lyase from M. costata): no AF detectable

Molecule: 1-butanol
- increase of AF yield ([1]; 5%, after 3-day incubation): 52%
- optimal concentration for AF yield ([1]; tested at 0%, 1%, 5% and 10%): 5%

Molecule: OC[C@H]1O[C@H](OC[C@H]2O[C@H](O[C@H]3[C@H](O)[C@@H](O)C(O)O[C@@H]3CO)[C@H](O)[C@@H](O)[C@@H]2O)[C@H](O)[C@@H](O)[C@@H]1O (stereo partly drawn) [panose]
- degradation by the lyase [2]: slow rate
- degradation (AF detectable on TLC plates) (lyase from M. vulgaris): no AF detectable
- degradation (AF detectable on TLC plates) (lyase from M. costata): no AF detectable

Molecule: OC[C@H]1O[C@@H]2O[C@H]3[C@H](O)[C@@H](O)[C@@H](O[C@H]4[C@H](O)[C@@H](O)[C@@H](O[C@H]5[C@H](O)[C@@H](O)[C@@H](O[C@H]6[C@H](O)[C@@H](O)[C@@H](O[C@H]7[C@H](O)[C@@H](O)[C@@H](O[C@H]8[C@H](O)[C@@H](O)[C@@H](O[C@H]1[C@H](O)[C@H]2O)O[C@@H]8CO)O[C@@H]7CO)O[C@@H]6CO)O[C@@H]5CO)O[C@@H]4CO)O[C@@H]3CO [beta-cyclodextrin]
- degradation by the lyase [2]: not able to degrade
- degradation (AF detectable on TLC plates) (lyase from M. vulgaris): no AF detectable
- degradation (AF detectable on TLC plates) (lyase from M. costata): no AF detectable

Molecule: OC[C@H]1O[C@@H]2O[C@H]3[C@H](O)[C@@H](O)[C@@H](O[C@H]4[C@H](O)[C@@H](O)[C@@H](O[C@H]5[C@H](O)[C@@H](O)[C@@H](O[C@H]6[C@H](O)[C@@H](O)[C@@H](O[C@H]7[C@H](O)[C@@H](O)[C@@H](O[C@H]1[C@H](O)[C@H]2O)O[C@@H]7CO)O[C@@H]6CO)O[C@@H]5CO)O[C@@H]4CO)O[C@@H]3CO [alpha-cyclodextrin]
- degradation by the lyase [2]: not able to degrade
- degradation (AF detectable on TLC plates) (lyase from M. vulgaris): no AF detectable
- degradation (AF detectable on TLC plates) (lyase from M. costata): no AF detectable

Molecule: OC[C@H]1O[C@H](O[C@H]2[C@H](O)[C@@H](CO)OC(O)[C@@H]2O)[C@H](O)[C@@H](O)[C@@H]1O (stereo partly drawn) [nigerose]
- degradation by the lyase [2]: slow rate
- degradation (AF detectable on TLC plates) (lyase from M. vulgaris): no AF detectable
- degradation (AF detectable on TLC plates) (lyase from M. costata): no AF detectable

Molecule: Glycogen
- substrate concentration at which half of the maximal velocity rate was reached [2]: 3.37 mg/mL
- AF released [2]: 592 nmol
- ratio of relative reaction rates between Glycogen and Amylopectin (%) ([3]; 25 C.): 72.4%
- relative reaction rates ([3]; 25 C.): 0.592^a
- ratio of relative reaction rates between Glycogen and Amylopectin (%) ([3]; 30 C.): 79.8%
- relative reaction rates ([3]; 30 C.): 0.904^a
- ratio of relative reaction rates between Glycogen and Amylopectin (%) ([3]; 45 C.): 158.9%
- relative reaction rates ([3]; 45 C.): 1.861^a
- Activity (%) (maltotetraose = 100%) (lyase from M. vulgaris): 183.3%
- degradation by the fungal lyase (lyase from M. costata): also degraded
- relative degrading rate (maltotetraose = 100%) (lyase from M. costata; substrate 10 mg/ml): 128.5%

Molecule: O=[N+]([O-])c1ccc(O[C@H]2O[C@H](CO)[C@@H](O[C@H]3O[C@H](CO)[C@@H](O[C@H]4O[C@H](CO)[C@@H](O[C@H]5O[C@H](CO)[C@@H](O[C@H]6O[C@H](CO)[C@@H](O[C@H]7O[C@H](CO)[C@@H](O[C@H]8O[C@H](CO)[C@@H](O)[C@H](O)[C@H]8O)[C@H](O)[C@H]7O)[C@H](O)[C@H]6O)[C@H](O)[C@H]5O)[C@H](O)[C@H]4O)[C@H](O)[C@H]3O)[C@H](O)[C@H]2O)cc1 [p-nitrophenyl α-D-maltoheptaose]
- degradation by the fungal lyase (lyase from M. costata): degraded

Molecule: CC(C)O [2-propanol]
- increase of AF yield ([1]; 1%, after 10 days incubation): 20%
- optimal concentration for AF yield ([1]; tested at 0%, 1%, 5% and 10%): 1%
